Assay results: paper PMC5577376 (Nature chemical biology, 2017)
Entries after “also recorded” stand apart in the source; their conditions may differ. Blank lines part the entries; values can stand above or below the compound they belong to.

Key:
[1] = biological target: DCN1 (PONY domain) binding to N-terminally acetylated UBE2M peptide (Homo sapiens, UniProt Q96GG9)
DCN4 = biological target: T1, DCN4 (Homo sapiens, UniProt Q92564); assay: Pulse-chase neddylation assay with DCN4; format: biochemical
T1 sequence (Q92564 101-287 limits assumed): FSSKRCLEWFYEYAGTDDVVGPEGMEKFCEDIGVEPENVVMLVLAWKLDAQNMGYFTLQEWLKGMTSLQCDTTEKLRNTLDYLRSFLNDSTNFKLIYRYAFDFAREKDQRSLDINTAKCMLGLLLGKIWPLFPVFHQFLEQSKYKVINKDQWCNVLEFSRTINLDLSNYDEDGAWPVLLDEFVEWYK

[2] = system: cullin neddylation in HCC95 cells; assay: Cullin neddylation immunoblot, HCC95; format: cell-based, human; conditions: for Effect on levels of neddylated cullins: HCC95, 10 μM dosed at 0 and 24 hours, harvested at 48 hours
C115A DCN1, C115G DCN1 = C115A DCN1, C115G DCN1 (Homo sapiens, UniProt Q96GG9, C115A); assay: Covalent adduct formation by TOF mass spectrometry, DCN1 Cys115 mutants; format: binding
DCN1 = DCN1 (Homo sapiens, UniProt Q96GG9); assay: Covalent adduct formation by LC-TOF mass spectrometry, DCN1; format: binding; conditions: 30 μM PONY domain, 60 μM compound, overnight / 24-hour incubation
DCN5 = biological target: T2, DCN5 (Homo sapiens, UniProt Q9BTE7); assay: Pulse-chase neddylation assay with DCN5; format: biochemical
T2 sequence (Q9BTE7 46-232 limits assumed): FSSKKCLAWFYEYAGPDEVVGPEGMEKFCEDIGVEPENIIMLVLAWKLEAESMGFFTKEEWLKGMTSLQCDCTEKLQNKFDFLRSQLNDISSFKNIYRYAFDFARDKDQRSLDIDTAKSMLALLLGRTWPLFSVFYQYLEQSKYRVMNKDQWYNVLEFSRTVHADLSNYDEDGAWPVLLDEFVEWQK

[3] = biological target: DCN1-dependent neddylation from AcUBE2M to CUL2CTD-RBX1 (Homo sapiens, UniProt Q96GG9); format: biochemical
DCN4 PONY domain = biological target: T3, DCN4 PONY domain (Homo sapiens, UniProt Q92564); assay: Covalent adduct formation by TOF mass spectrometry, DCN4; format: binding; conditions: 30 μM PONY domain, 60 μM compound, overnight
T3 sequence (Q92564 101-287 limits assumed): T1 sequence (Q92564 101-287 limits assumed)

DCN3 = biological target: T4, DCN3 (Homo sapiens, UniProt Q8IWE4); assay: Pulse-chase neddylation assay with DCN3; format: biochemical
T4 sequence (Q8IWE4 86-278 limits assumed): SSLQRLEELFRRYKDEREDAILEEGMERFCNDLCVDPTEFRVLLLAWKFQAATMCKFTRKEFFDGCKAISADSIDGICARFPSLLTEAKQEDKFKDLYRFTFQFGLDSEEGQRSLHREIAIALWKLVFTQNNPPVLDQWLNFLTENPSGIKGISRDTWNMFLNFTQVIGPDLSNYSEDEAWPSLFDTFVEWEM

DCN2 PONY domain = DCN2 PONY domain (Homo sapiens, UniProt Q6PH85); assay: Covalent adduct formation by TOF mass spectrometry, DCN2; format: binding; conditions: 30 μM PONY domain, 60 μM compound, overnight
DCN3 PONY domain = biological target: T5, DCN3 PONY domain (Homo sapiens, UniProt Q8IWE4); assay: Covalent adduct formation by TOF mass spectrometry, DCN3; format: binding; conditions: 30 μM PONY domain, 60 μM compound, overnight
T5 sequence (Q8IWE4 86-278 limits assumed): T4 sequence (Q8IWE4 86-278 limits assumed)

[4] = system: anchorage independent growth of HCC95 cells; assay: Soft agar colony formation assay; format: cell-based, human; conditions: 10 μM
DCN5 PONY domain = biological target: T6, DCN5 PONY domain (Homo sapiens, UniProt Q9BTE7); assay: Covalent adduct formation by TOF mass spectrometry, DCN5; format: binding; conditions: 30 μM PONY domain, 60 μM compound, overnight
T6 sequence (Q9BTE7 46-232 limits assumed): T2 sequence (Q9BTE7 46-232 limits assumed)

[5] = system: N-acetyl-UBE2M interactions in 293T cells; assay: AP-MS TMT interaction proteomics of UBE2M; format: cell-based, human
[6] = system: levels of CRL substrates in HCC95 cells; assay: Immunoblot of cullin-RING ligase substrates, HCC95; format: cell-based, human
DCN2 = DCN2 (Homo sapiens, UniProt Q6PH85); assay: Pulse-chase neddylation assay with DCN2; format: biochemical; conditions: 10 μM
[7] = system: DCN1-independent NEDD8 ligation from AcUBE2M to CUL2CTD; assay: Pulse-chase assay, DCN1-independent neddylation; format: biochemical, human
[8] = biological target: UBE2M-DCN1 interaction in 293T cells (Homo sapiens, UniProt Q96GG9); assay: Co-immunoprecipitation of DCN1 with UBE2M-FLAG-HA in cells; format: cell-based; conditions: treated 24 hours
NEDD8 E1 enzyme = conditions: read-out: biochemical IC50; cited from earlier work
[9] = system: cellular neddylation / ubiquitination; conditions: cited from earlier work
[10] = even at concentrations of 100 μM

DCN1-dependent neddylation from AcUBE2M to CUL2CTD-RBX1, sequence (Q96GG9 60-248 limits assumed): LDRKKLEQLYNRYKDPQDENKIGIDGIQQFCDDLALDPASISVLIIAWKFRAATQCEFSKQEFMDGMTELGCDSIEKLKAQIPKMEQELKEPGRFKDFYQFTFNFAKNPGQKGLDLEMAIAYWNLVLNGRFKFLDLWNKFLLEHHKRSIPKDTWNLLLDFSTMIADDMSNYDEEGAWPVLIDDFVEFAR
DCN1 (PONY domain) binding to N-terminally acetylated UBE2M peptide, sequence (Q96GG9 60-248 limits assumed): as above
DCN1, sequence (Q96GG9 60-248 limits assumed): as above
UBE2M-DCN1 interaction in 293T cells, sequence (Q96GG9 whole entry): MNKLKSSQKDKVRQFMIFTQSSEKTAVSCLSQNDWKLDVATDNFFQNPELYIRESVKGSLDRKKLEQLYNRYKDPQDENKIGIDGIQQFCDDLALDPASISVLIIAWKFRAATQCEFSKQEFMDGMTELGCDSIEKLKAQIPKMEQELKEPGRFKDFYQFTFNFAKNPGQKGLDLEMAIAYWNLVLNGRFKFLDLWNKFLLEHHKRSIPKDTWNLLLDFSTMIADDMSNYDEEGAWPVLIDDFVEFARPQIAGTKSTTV
C115A DCN1, C115G DCN1, sequence (Q96GG9 62-259 C115A): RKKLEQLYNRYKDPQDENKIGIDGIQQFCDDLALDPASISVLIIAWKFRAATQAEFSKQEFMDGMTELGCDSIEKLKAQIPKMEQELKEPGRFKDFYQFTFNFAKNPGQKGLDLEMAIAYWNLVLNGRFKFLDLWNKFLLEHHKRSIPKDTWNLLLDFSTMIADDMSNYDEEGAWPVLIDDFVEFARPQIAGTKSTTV
DCN2, sequence (Q6PH85 60-248 limits assumed): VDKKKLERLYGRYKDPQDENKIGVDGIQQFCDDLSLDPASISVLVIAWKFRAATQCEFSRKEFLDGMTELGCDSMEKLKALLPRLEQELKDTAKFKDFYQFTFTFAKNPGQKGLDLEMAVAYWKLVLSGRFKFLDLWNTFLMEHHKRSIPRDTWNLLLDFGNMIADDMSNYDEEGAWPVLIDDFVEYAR
DCN2 PONY domain, sequence (Q6PH85 60-248 limits assumed): as above

Potency increase by electrophile, NAcM-COV versus NAcM-COVCTRL, TR-FRET [1]: > 30 fold
Activity towards DCN4 (DCN4; 50 μM): Partial activity
Covalent adduct formation with DCN1 Cys115 replaced by Ala or Gly (C115A DCN1, C115G DCN1): prevented covalent adduct formation
Inhibition of DCN5 (DCN5): lack of inhibition
Potency increase by electrophile, NAcM-COV versus NAcM-COVCTRL, neddylation [3]: 2.5 fold
Covalent adduct formation with DCN4 (DCN4 PONY domain): Both modified and unmodified forms
Activity towards DCN3 (DCN3; 50 μM): Partial activity
Covalent adduct formation with DCN2 (DCN2 PONY domain): corresponded to adducts
Covalent adduct formation with DCN3 (DCN3 PONY domain): corresponded to adducts
Covalent adduct formation with DCN5 (DCN5 PONY domain): no evidence of covalent linkage
Compound: C=CC(=O)Nc1ccccc1CN(C(=O)Nc1cccc(C(F)(F)F)c1)C1CCN(C(C)CCC)CC1 (stereo not drawn) [NAcM-COV, N-(2-((1-(1-(pentan-2-yl)piperidin-4-yl)-3-(3-(trifluoromethyl)phenyl)ureido)methyl)phenyl)acrylamide]
Effect on levels of neddylated cullins [2]: reduced levels of neddylated cullins; also recorded: most potent inhibition
Covalent adduct formation with DCN1 (DCN1): most effective; also recorded: corresponded to adducts
Growth / colony formation of HCC95 cells in soft agar [4]: blocks growth

Enhanced potency relative to NAcM-HIT, TR-FRET [1]: 100 fold
Activity toward DCN4 (DCN4; 10 μM): no activity
Activity toward DCN5 (DCN5; 10 μM): no activity
Increased potency toward the neddylation reaction relative to NAcM-HIT [3]: 25 fold
Inhibition of DCN2-stimulated neddylation (DCN2): inhibited
Activity toward DCN3 (DCN3; 10 μM): no activity
Compound: CCCCN1CCC(N(Cc2ccccc2)C(=O)Nc2ccc(Cl)c(Cl)c2)CC1 [NAcM-OPT, 1-benzyl-1-(1-butylpiperidin-4-yl)-3-(3,4-dichlorophenyl)urea]
Effect on levels of neddylated cullins [2]: reduced levels of neddylated cullins
Fold decrease in UBE2M binding: CUL3 [5]: 1.9 fold
Fold decrease in UBE2M binding: CUL5 [5]: 3.2 fold
Fold decrease in UBE2M binding: DCN1 [5]: ≈ 8 fold
Levels of CRL substrates ([6]; HCC95, 10 μM): Neither NAcM-OPT treatment nor DCN1 shRNA stabilizes
Growth / colony formation of HCC95 cells in soft agar [4]: blocks growth

Compound: O=C(Nc1cccc(C(F)(F)F)c1)NC1CCN(Cc2ccccc2)CC1 [NAcM-HIT, 1-(1-benzylpiperidin-4-yl)-3-(3-(trifluoromethyl)phenyl)urea]
Inhibition of DCN1-independent NEDD8 ligation [7]: did not inhibit

Effect on DCN1-UBE2M interaction by TR-FRET [1, 10]: no effect
Effect on neddylation by enzyme assays [3, 10]: no effect
Co-precipitation of DCN1 with UBE2M [8]: interaction was observed
Compound: CCCCN1CCC(N(Cc2ccccc2)C(=O)Nc2cccnc2)CC1 [NAcM-NEG, 1-benzyl-1-(1-butylpiperidin-4-yl)-3-(pyridin-3-yl)urea]
Effect on levels of neddylated cullins [2]: no effect

Compound: CCCC(C)N1CCC(N(Cc2ccccc2NC(=O)CC)C(=O)Nc2cccc(C(F)(F)F)c2)CC1 (stereo not drawn) [NAcM-COVCTRL, N-(2-((1-(1-(pentan-2-yl)piperidin-4-yl)-3-(3-(trifluoromethyl)phenyl)ureido)methyl)phenyl)propionamide]
Effect on levels of neddylated cullins [2]: relatively reduced potency

Compound: NS(=O)(=O)OC[C@@H]1C[C@@H](n2ccc3c(N[C@H]4CCc5ccccc54)ncnc32)C[C@@H]1O [MLN4924]
Effect on neddylation in cells ([2]; single dose, 1 μM): eliminates all neddylation
IC50 (NEDD8 E1 enzyme): 5 nM
Levels of CRL substrates ([6]; HCC95, MLN4924 1 μM): high-level accumulation
concentration at which cell based activity is penetrant [9]: 0.3 to 1 µM
Reduction of total cellular ubiquitination ([9]; total blockade of neddylation): 10–20%
